Experimental data as given in patent US20230055705A1, “SUBSTITUTED THIOPHENE CARBOXAMIDES AND DERIVATIVES THEREOF” (Bayer Aktiengesellschaft, priority 2019, published 2023).

System: Peronospora parasitica
Assay: In vivo preventive test on Peronospora parasitica (Crucifer downy mildew)
Conditions: Hyaloperonospora parasitica, in Brassica oleracea, 120 h, 31 ppm of active ingredient, cabbage, evaluated 5 days after inoculation, read-out: efficacy
Experimental: (§1) The tested active ingredients were prepared by homogenization in a mixture of acetone/Dimethyl sulfoxide/Tween®, and then diluted with water to obtain the desired active material concentration. The young plants of cabbage were treated by spraying the active ingredient prepared as described above. Control plants were treated only with an aqueous solution of acetone/Dimethyl sulfoxide/Tween®.
After 72 hours, the plants were contaminated by spraying the leaves with an aqueous suspension of Peronospora parasitica spores. The contaminated cabbage plants were incubated for 5 days at 20° C. and at 100% relative humidity.
The test was evaluated 5 days after the inoculation. 0% means an efficacy which corresponds to that of the control plants while an efficacy of 100% means that no disease was observed.
Compounds CMP2 and CMP3 were tested in an in vivo preventive test on Peronospora parasitica (Crucifer downy mildew) in the same conditions as described in Example G.

SMILES	pest or weed control at 31 ppm [%]
COC(=O)C(NC(=O)c1sc(Cl)c(Cl)c1Cl)c1cccs1 (centres unmarked) [I.124]	90 to 100
CNC(=S)SC[C@H](NC(=O)c1sc(Cl)c(Cl)c1Cl)C(=O)OC [I.140]	90 to 100

Same assay, conditions: Hyaloperonospora parasitica, in Brassica oleracea, 120 h, 125 ppm of active ingredient, cabbage, evaluated 5 days after inoculation, read-out: efficacy

SMILES	pest or weed control at 125 ppm [%]
CON(C(=O)c1sc(Cl)c(Cl)c1Cl)C(C)C(=O)O (centres unmarked) [I.111]	80 to 89
COC(=O)C(NC(=O)c1sc(Cl)c(Cl)c1Cl)c1cccs1 (centres unmarked) [I.124]	90 to 100
CNC(=S)SC[C@H](NC(=O)c1sc(Cl)c(Cl)c1Cl)C(=O)OC [I.140]	90 to 100

Same assay, conditions: Hyaloperonospora parasitica, in Brassica oleracea, 120 h, 500 ppm of active ingredient, cabbage, evaluated 5 days after inoculation, read-out: efficacy

SMILES	pest or weed control at 500 ppm [%]
CON(C(=O)c1sc(Cl)c(Cl)c1Cl)C(C)C(=O)O (centres unmarked) [I.111]	90 to 100

System: Pseudomonas syringae pv. tomato
Assay: Pseudomonas syringae pv. tomato in vitro cell test
Assay type: cell-based
Conditions: 20 ppm of active ingredient, 24 h incubation, read-out: efficacy (inhibition of bacteria growth)
Experimental: Culture medium: LB broth medium (Luria Broth Miller) Sigma
Inoculum: bacteria suspension
Compounds were solubilized in DMSO and the solution used to prepare the required range of concentrations. The final concentration of DMSO used in the assay was 1%.
(§2) Inoculum was prepared from a pre-culture of bacteria grown in liquid medium and diluted to the desired optical density (OD).
(§3) Compounds were evaluated for their ability to inhibit bacteria growth in liquid culture assay. The compounds were added in the desired concentrations to culture medium containing the bacteria suspension. After 24 h of incubation, the efficacy of compounds was determined by spectrometric measurement of bacteria growth. Inhibition was determined by comparing the absorbance values in wells containing the compounds with the absorbance in control wells without active ingredients.

SMILES	inhibition at 20 ppm [%]
COC(=O)C(NC(=O)c1sc(Cl)c(Cl)c1Cl)c1cccs1 (centres unmarked) [I.124]	≤ 30
CNC(=S)SC[C@H](NC(=O)c1sc(Cl)c(Cl)c1Cl)C(=O)OC [I.140]	≤ 30

System: Xanthomonas campestris pv. campestris
Assay: In vivo preventive test on Xanthomonas campestris pv. campestris (black rot on cabbage)
Conditions: 125 ppm of active ingredient, evaluated 8 or 10 days after inoculation, read-out: efficacy
Experimental: The tested active ingredients were prepared by homogenization in a mixture of acetone/Dimethyl sulfoxide/Tween®, and then diluted with water to obtain the desired active material concentration.
The young plants of cabbage were treated by spraying the active ingredient prepared as described above. Control plants were treated only with an aqueous solution of acetone/Dimethyl sulfoxide/Tween®.
After 72 hours, the plants were contaminated by spraying the leaves with an aqueous bacteria suspension of Xanthomonas campestris pv. campestris. The contaminated cabbage plants were incubated for 8 or 10 days at 27° C. at 95% relative humidity.
The test was evaluated 8 or 10 days after the inoculation. 0% means an efficacy which corresponds to that of the control plants while an efficacy of 100% means that no disease was observed. […]
Compounds CMP1, CMP2, CMP3 and CMP4 were tested in an in vivo preventive test on Xanthomonas campestris pv. campestris (black rot on cabbage) in the same conditions as described in Example H.

SMILES	pest or weed control at 125 ppm [%]
CON(C(=O)c1sc(Cl)c(Cl)c1Cl)C(C)C(=O)O (centres unmarked) [I.111]	70 to 79

Same assay, conditions: read-out: efficacy, 31 ppm of active ingredient, evaluated 8 or 10 days after inoculation

SMILES	pest or weed control at 31 ppm [%]
CNC(=S)SC[C@H](NC(=O)c1sc(Cl)c(Cl)c1Cl)C(=O)OC [I.140]	90 to 100

System: Xanthomonas campestris pv. campestris
Assay: Xanthomonas campestris pv. campestris in vitro cell test
Assay type: cell-based
Conditions: 20 ppm of active ingredient, 24 h incubation, read-out: efficacy (inhibition of bacteria growth)
Experimental: • Solvent: DMSO • Culture medium: LB broth medium (Luria Broth Miller) Sigma • Inoculum: bacteria suspension
Compounds were solubilized in DMSO and the solution used to prepare the required range of concentrations. The final concentration of DMSO used in the assay was ≤1%.
as §2, §3

SMILES	inhibition at 20 ppm [%]
COC(=O)C(NC(=O)c1sc(Cl)c(Cl)c1Cl)c1cccs1 (centres unmarked) [I.124]	≤ 30

Same assay, conditions: 24 h, read-out: efficacy (inhibition of bacteria growth)

SMILES	inhibition at 20 ppm [%]
CNC(=S)SC[C@H](NC(=O)c1sc(Cl)c(Cl)c1Cl)C(=O)OC [I.140]	≤ 30

System: not listed separately
Assay: LogP by HPLC on reversed phase columns (EEC directive 79/831 Annex V.A8)
Assay type: physicochemical
Conditions: reversed phase HPLC columns, method [a]: LC-UV, acidic range, 0.1% formic acid in water and acetonitrile as eluent (linear gradient 10% to 95% acetonitrile)
Experimental: In the above tables, measurement of LogP values was performed according to EEC directive 79/831 Annex V.A8 by HPLC (High Performance Liquid Chromatography) on reversed phase columns with the following methods: • ^[a]
Calibration was done with straight-chain alkan2-ones (with 3 to 16 carbon atoms) with known LogP values (measurement of LogP values using retention times with linear interpolation between successive alkanones). Lambda-max-values were determined using UV-spectra from 200 nm to 400 nm and the peak values of the chromatographic signals.

SMILES	chromatographic logP
COC(=O)C(NC(=O)c1sc(Cl)c(Cl)c1Cl)c1cccs1 (centres unmarked) [I.124]	4.22
CNC(=S)SC[C@H](NC(=O)c1sc(Cl)c(Cl)c1Cl)C(=O)OC [I.140]	3.52

Same assay, conditions: reversed phase HPLC columns, method [a]: LC-UV, in an acidic range, with 0.1% formic acid in water and acetonitrile as eluent (linear gradient from 10% to 95% acetonitrile)

SMILES	chromatographic logP
CON(C(=O)c1sc(Cl)c(Cl)c1Cl)C(C)C(=O)O (centres unmarked) [I.111]	2.83

System: Uromyces appendiculatus
Assay: In vivo preventive test on Uromyces appendiculatus (bean rust)
Conditions: 240 h, 125 ppm of active ingredient, evaluated 10 days after inoculation, read-out: efficacy
Experimental: as §1, with “bean” for “cabbage”
(§4) After 72 hours, the plants were contaminated by spraying the leaves with an aqueous suspension of Uromyces appendiculatus spores. The contaminated bean plants were incubated for 24 hours at 20° C. and at 100% relative humidity and then for 9 days at 20° C. and at 70-80% relative humidity. The test was evaluated 10 days after the inoculation. 0% means an efficacy which corresponds to that of the control plants while an efficacy of 100% means that no disease was observed.
Compounds CMP5 and CMP6 were tested in an in vivo preventive test on Uromyces appendiculatus (bean rust) in the same conditions as described in Example I.

SMILES	pest or weed control at 125 ppm [%]
CON(C(=O)c1sc(Cl)c(Cl)c1Cl)C(C)C(=O)O (centres unmarked) [I.111]	90 to 100
COC(=O)C(NC(=O)c1sc(Cl)c(Cl)c1Cl)c1cccs1 (centres unmarked) [I.124]	90 to 100
CNC(=S)SC[C@H](NC(=O)c1sc(Cl)c(Cl)c1Cl)C(=O)OC [I.140]	90 to 100

Same assay, conditions: 240 h, 500 ppm of active ingredient, evaluated 10 days after inoculation, read-out: efficacy

SMILES	pest or weed control at 500 ppm [%]
CON(C(=O)c1sc(Cl)c(Cl)c1Cl)C(C)C(=O)O (centres unmarked) [I.111]	90 to 100

System: Colletotrichum lindemuthianum
Assay: In vivo preventive test on Colletotrichum lindemuthianum (Antrachnose on bean)
Conditions: 144 h, 31 ppm of active ingredient, inoculation 72 h after spraying, evaluated 6 days after inoculation, read-out: efficacy
Experimental: as §1, with “bean” for “cabbage”
as §4, with “of Colletotrichum lindemuthianum” for “of Uromyces appendiculatus”, “for 5” for “for 9”, “at 90%” for “at 70-80%”, “evaluated 6” for “evaluated 10”
Compound CMP1 was tested in an in vivo preventive test on Colletotrichum lindemuthianum (Antrachnose on bean) in the same conditions as described in Example F.

SMILES	pest or weed control at 31 ppm [%]
COC(=O)C(NC(=O)c1sc(Cl)c(Cl)c1Cl)c1cccs1 (centres unmarked) [I.124]	90 to 100

Same assay, conditions: 144 h, 500 ppm of active ingredient, inoculation 72 h after spraying, evaluated 6 days after inoculation, read-out: efficacy

SMILES	pest or weed control at 500 ppm [%]
CON(C(=O)c1sc(Cl)c(Cl)c1Cl)C(C)C(=O)O (centres unmarked) [I.111]	70 to 79

System: Pseudomonas syringae pv. tomato
Assay: In vivo preventive test on Pseudomonas syringae pv. tomato (bacterial speck on tomato)
Conditions: 31 ppm of active ingredient, evaluated 5 or 6 days after inoculation, read-out: efficacy
Experimental: as §1, with “tomato” for “cabbage”
After 72 hours, the plants were contaminated by spraying the leaves with an aqueous bacteria suspension of Pseudomonas syringae pv. tomato. The contaminated tomato plants were incubated for 4 days in saturated atmosphere at 22° C. day/20° C. night—70% HR and then for 1 or 2 days at 22° C. day/20° C. night at 70-80% relative humidity.
The test was evaluated 5 or 6 days after the inoculation. 0% means an efficacy which corresponds to that of the control plants while an efficacy of 100% means that no disease was observed.
Compounds CMP1 and CMP4 were tested in an in vivo preventive test on Pseudomonas syringae pv. tomato (bacterial speck on tomato) in the same conditions as described in Example J.

SMILES	pest or weed control at 31 ppm [%]
COC(=O)C(NC(=O)c1sc(Cl)c(Cl)c1Cl)c1cccs1 (centres unmarked) [I.124]	80 to 89
CNC(=S)SC[C@H](NC(=O)c1sc(Cl)c(Cl)c1Cl)C(=O)OC [I.140]	70 to 79

Same assay, conditions: 500 ppm of active ingredient, evaluated 5 or 6 days after inoculation, read-out: efficacy

SMILES	pest or weed control at 500 ppm [%]
CON(C(=O)c1sc(Cl)c(Cl)c1Cl)C(C)C(=O)O (centres unmarked) [I.111]	80 to 89

System: salicylate responsive promoter sequence of the PR1 (pathogenesis-related protein I) gene (AT2G14610)
Assay: Induction of defense gene expression in Arabidopsis thaliana (PR1 promoter-GFP reporter plants)
Assay type: in vivo
Conditions: Arabidopsis thaliana, 72 h; 75 ppm of compound; 3rd day after spraying; mock treated leaves set as 1.00; read-out: relative fluorescence value
Experimental: Arabidopsis thaliana reporter plants containing the coding sequence of a green fluorescent protein (GFP) linked to the salicylate responsive promoter sequence of the PR1 (pathogenesis-related protein I) gene (AT2G14610) were grown for five days and then sprayed with compounds. On the 3rd day after spraying, plant fluorescence was assessed with a MacroFluo instrument from Leica Microsystems (Wetzlar, Germany). Fluorescences were quantified with the Meta-Morph Microscopy Automation & Image Analysis Software (Molecular Devices, Sunnyvale, Calif., United States). Background fluorescence in mock treated leaves was set as 1.00.

SMILES	fold induction at 75 ppm
COC(=O)C(NC(=O)c1sc(Cl)c(Cl)c1Cl)c1cccs1 (centres unmarked) [I.124]	> 2
CNC(=S)SC[C@H](NC(=O)c1sc(Cl)c(Cl)c1Cl)C(=O)OC [I.140]	> 2

Same assay, conditions: Arabidopsis thaliana, 72 h; 300 ppm; 3rd day after spraying; mock treated leaves set as 1.00; read-out: relative fluorescence value

SMILES	fold induction at 300 ppm
CON(C(=O)c1sc(Cl)c(Cl)c1Cl)C(C)C(=O)O (centres unmarked) [I.111]	> 2
COC(=O)C(NC(=O)c1sc(Cl)c(Cl)c1Cl)c1cccs1 (centres unmarked) [I.124]	> 2
CNC(=S)SC[C@H](NC(=O)c1sc(Cl)c(Cl)c1Cl)C(=O)OC [I.140]	> 2
